In patent US8969565B2, “Imidazo[1,2-b]pyridazine-based compounds, compositions comprising them, and methods of their use” (Lexicon Pharmaceuticals, Inc., priority 2012, dated 2015):

Molecular target: T1, AAK1 (Homo sapiens, UniProt Q2M2I8)
T1 construct: HA; expressed in transfected cells; host or cells: HEK293F
Test: HEK281 cell-based assay (phospho-mu2 Western blot in transfected HEK293F cells)
Details: 3 hours incubation, read-out: CBA IC50
Method in brief: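 After 3 hours at 37° C. with compound (five 3-fold-spaced concentrations, DMEM+0.5% FBS), transiently transfected HEK293F cells expressing full-length human AAK1 and Flag-tagged mu2 were lysed. mu2 phosphorylation was read by anti-phospho-mu2 immunoblot, normalized against total mu2 by anti-Flag blot.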

T1 sequence (Q2M2I8 1-863 isoform Q2M2I8-2): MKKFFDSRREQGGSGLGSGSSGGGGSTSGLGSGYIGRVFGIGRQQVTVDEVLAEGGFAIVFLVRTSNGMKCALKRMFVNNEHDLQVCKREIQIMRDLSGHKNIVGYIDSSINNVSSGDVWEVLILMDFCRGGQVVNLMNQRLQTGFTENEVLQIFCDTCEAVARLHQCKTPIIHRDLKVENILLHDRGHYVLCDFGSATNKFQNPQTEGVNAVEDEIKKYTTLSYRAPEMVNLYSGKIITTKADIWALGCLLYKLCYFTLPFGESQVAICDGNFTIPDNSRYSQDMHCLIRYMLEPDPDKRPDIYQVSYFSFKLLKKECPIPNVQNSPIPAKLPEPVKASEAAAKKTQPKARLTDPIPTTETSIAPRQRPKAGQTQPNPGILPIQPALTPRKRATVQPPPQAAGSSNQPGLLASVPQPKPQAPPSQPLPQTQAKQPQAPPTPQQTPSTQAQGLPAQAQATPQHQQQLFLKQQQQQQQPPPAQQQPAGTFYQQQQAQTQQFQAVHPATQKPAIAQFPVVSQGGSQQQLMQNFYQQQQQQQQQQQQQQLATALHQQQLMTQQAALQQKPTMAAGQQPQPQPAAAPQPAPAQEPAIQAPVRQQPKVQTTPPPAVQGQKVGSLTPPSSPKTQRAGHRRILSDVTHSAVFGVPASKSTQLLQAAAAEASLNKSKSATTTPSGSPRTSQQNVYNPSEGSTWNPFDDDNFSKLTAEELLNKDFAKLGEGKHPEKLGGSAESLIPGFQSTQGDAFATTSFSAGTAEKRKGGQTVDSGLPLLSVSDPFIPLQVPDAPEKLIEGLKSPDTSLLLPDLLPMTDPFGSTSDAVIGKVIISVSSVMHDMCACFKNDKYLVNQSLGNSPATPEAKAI

| IC50 [µM] | Structure (SMILES) |
| --- | --- |
| ≤ 1 | CNCCNC(=O)c1ccc(-c2cnc3ccc(NCCCN(C)C(=O)C(C)(C)C)nn23)cc1 [N-(2-(methylamino)ethyl)-4-(6-((3-(N-methylpivalamido)propyl)amino)imidazo[1,2-b]pyridazin-3-yl)benzamide] |
| ≤ 1 | CC(C)(C)CCNc1ccc2ncc(-c3ccc(C(=O)NCCN)cc3)n2n1 [N-(2-aminoethyl)-4-(6-((3,3-dimethylbutyl)amino)imidazo[1,2-b]pyridazin-3-yl)benzamide] |
| ≤ 1 | NCCNC(=O)c1ccc(-c2cnc3ccc(NCCCc4ccccc4)nn23)cc1 [N-(2-aminoethyl)-4-(6-((3-phenylpropyl)amino)imidazo[1,2-b]pyridazin-3-yl)benzamide] |
| ≤ 0.1 | CCCCNc1ccc2ncc(-c3ccc(C(=O)NCCN)c(F)c3)n2n1 [N-(2-aminoethyl)-4-(6-(butylamino)imidazo[1,2-b]pyridazin-3-yl)-2-fluorobenzamide] |
| ≤ 1 | CCCCNc1ccc2ncc(-c3ccc(C(=O)NCCN)c(OC)c3)n2n1 [N-(2-aminoethyl)-4-(6-(butylamino)imidazo[1,2-b]pyridazin-3-yl)-2-methoxybenzamide] |
| ≤ 1 | CCCCNc1ccc2ncc(-c3ccc(C(=O)NCCN)cc3F)n2n1 [N-(2-aminoethyl)-4-(6-(butylamino)imidazo[1,2-b]pyridazin-3-yl)-3-fluorobenzamide] |
| ≤ 1 | CCCCNc1ccc2ncc(-c3ccc(C(=O)NCCN)cc3)n2n1 [N-(2-aminoethyl)-4-(6-(butylamino)imidazo[1,2-b]pyridazin-3-yl)benzamide] |
| ≤ 1 | CCCCNc1ccc2ncc(-c3ccc(C(=O)NCC(C)N)cc3)n2n1 (stereo not drawn) [N-(2-aminopropyl)-4-(6-(butylamino)imidazo[1,2-b]pyridazin-3-yl)benzamide] |
| ≤ 0.1 | CCOc1ccccc1CCNc1ccc2ncc(-c3ccncc3OC)n2n1 [N-(2-ethoxyphenethyl)-3-(3-methoxypyridin-4-yl)imidazo[1,2-b]pyridazin-6-amine] |
| ≤ 1 | CC(C)OCCNc1ccc2ncc(-c3cc[nH]n3)n2n1 [N-(2-isopropoxyethyl)-3-(1H-pyrazol-3-yl)imidazo[1,2-b]pyridazin-6-amine] |
| ≤ 0.01 | COc1cnccc1-c1cnc2ccc(NCCOC(C)C)nn12 [N-(2-isopropoxyethyl)-3-(3-methoxypyridin-4-yl)imidazo[1,2-b]pyridazin-6-amine] |
| ≤ 0.1 | CC(C)OCCNc1ccc2ncc(-c3ccc(C4CCCN4)cc3)n2n1 (stereo not drawn) [N-(2-isopropoxyethyl)-3-(4-(pyrrolidin-2-yl)phenyl)imidazo[1,2-b]pyridazin-6-amine] |
| ≤ 0.1 | CC(C)OCCNc1ccc2ncc(-c3ccns3)n2n1 [N-(2-isopropoxyethyl)-3-(isothiazol-5-yl)imidazo[1,2-b]pyridazin-6-amine] |
| ≤ 1 | CC(C)OCCNc1ccc2ncc(-c3cscn3)n2n1 [N-(2-isopropoxyethyl)-3-(thiazol-4-yl)imidazo[1,2-b]pyridazin-6-amine] |
| ≤ 0.1 | CNCCOCc1ccc(-c2cnc3ccc(NCCC(C)(C)C)nn23)cc1 [N-(3,3-dimethylbutyl)-3-(4-((2-(methylamino)ethoxy)methyl)phenyl)imidazo[1,2-b]pyridazin-6-amine] |
| ≤ 1 | CC(C)(C)CCNc1ccc2ncc(-c3ccc(C4CCCN4)cc3)n2n1 (stereo not drawn) [N-(3,3-dimethylbutyl)-3-(4-(pyrrolidin-2-yl)phenyl)imidazo[1,2-b]pyridazin-6-amine] |
| ≤ 1 | CN(CCCNc1ccc2ncc(-c3ccc(CN)cc3)n2n1)C(=O)C(C)(C)C [N-(3-((3-(4-(aminomethyl)phenyl)imidazo[1,2-b]pyridazin-6-yl)amino)propyl)-N-methylpivalamide] |
| ≤ 1 | CCCCNc1ccc2ncc(-c3ccc(C(=O)NCCCN)cc3)n2n1 [N-(3-aminopropyl)-4-(6-(butylamino)imidazo[1,2-b]pyridazin-3-yl)benzamide] |
| ≤ 0.1 | FCCCNc1ccc2ncc(-c3ccc(C4CCCN4)cc3)n2n1 (stereo not drawn) [N-(3-fluoropropyl)-3-(4-(pyrrolidin-2-yl)phenyl)imidazo[1,2-b]pyridazin-6-amine] |
| ≤ 1 | c1ccc(CCCNc2ccc3ncc(-c4ccc(C5CCCN5)cc4)n3n2)cc1 (stereo not drawn) [N-(3-phenylpropyl)-3-(4-(pyrrolidin-2-yl)phenyl)imidazo[1,2-b]pyridazin-6-amine] |
| ≤ 1 | CCCCNc1ccc2ncc(C(=O)Nc3ccc(OCCN)cc3)n2n1 [N-(4-(2-aminoethoxy)phenyl)-6-(butylamino)imidazo[1,2-b]pyridazine-3-carboxamide] |

| IC50 [µM] | Structure (SMILES) |
| --- | --- |
| ≤ 1 | CCCCNc1ccc2ncc(C(=O)Nc3ccc(CN)cc3)n2n1 [N-(4-(aminomethyl)phenyl)-6-(butylamino)imidazo[1,2-b]pyridazine-3-carboxamide] |
| ≤ 0.1 | CCCCNc1ccc2ncc(-c3ccc(C(=O)N[C@@H]4CCCC[C@@H]4N)cc3)n2n1 [N-((1R,2S)-2-aminocyclohexyl)-4-(6-(butylamino)imidazo[1,2-b]pyridazin-3-yl)benzamide] |
| ≤ 0.1 | COc1cnccc1-c1cnc2ccc(NCC3CCCC3)nn12 [N-(cyclopentylmethyl)-3-(3-methoxypyridin-4-yl)imidazo[1,2-b]pyridazin-6-amine] |
| ≤ 0.1 | CCCCNc1ccc2ncc(-c3cc[nH]n3)n2n1 [N-butyl-3-(1H-pyrazol-3-yl)imidazo[1,2-b]pyridazin-6-amine] |
| ≤ 0.1 | CCCCNc1ccc2ncc(-c3sc(C)nc3C)n2n1 [N-butyl-3-(2,4-dimethylthiazol-5-yl)imidazo[1,2-b]pyridazin-6-amine] |
| ≤ 0.1 | CCCCNc1ccc2ncc(-c3ccncc3OC)n2n1 [N-butyl-3-(3-methoxypyridin-4-yl)imidazo[1,2-b]pyridazin-6-amine] |
| ≤ 1 | CCCCNc1ccc2ncc(-c3ccc(CNCCOC)cc3)n2n1 [N-butyl-3-(4-(((2-methoxyethyl)amino)methyl)phenyl)imidazo[1,2-b]pyridazin-6-amine] |
| ≤ 1 | CCCCNc1ccc2ncc(-c3ccc(CNCC4CCCO4)cc3)n2n1 (stereo not drawn) [N-butyl-3-(4-((((tetrahydrofuran-2-yl)methyl)amino)methyl)phenyl)imidazo[1,2-b]pyridazin-6-amine] |
| ≤ 1 | CCCCNc1ccc2ncc(-c3ccc(CNCC4CC4)cc3)n2n1 [N-butyl-3-(4-(((cyclopropylmethyl)amino)methyl)phenyl)imidazo[1,2-b]pyridazin-6-amine] |
| ≤ 1 | CCCCNc1ccc2ncc(-c3ccc(CNC(C)C)cc3)n2n1 [N-butyl-3-(4-((isopropylamino)methyl)phenyl)imidazo[1,2-b]pyridazin-6-amine] |
| ≤ 1 | CCCCNc1ccc2ncc(-c3ccc(CNCCC)cc3)n2n1 [N-butyl-3-(4-((propylamino)methyl)phenyl)imidazo[1,2-b]pyridazin-6-amine] |
| ≤ 1 | CCCCNc1ccc2ncc(-c3ccc(CNC(C)(C)C)cc3F)n2n1 [N-butyl-3-(4-((tert-butylamino)methyl)-2-fluorophenyl)imidazo[1,2-b]pyridazin-6-amine] |
| ≤ 0.1 | CCCCNc1ccc2ncc(-c3ccc(CNC(C)(C)C)c(F)c3)n2n1 [N-butyl-3-(4-((tert-butylamino)methyl)-3-fluorophenyl)imidazo[1,2-b]pyridazin-6-amine] |
| ≤ 1 | CCCCNc1ccc2ncc(-c3ccc(C4CCCN4)cc3)n2n1 (stereo not drawn) [N-butyl-3-(4-(pyrrolidin-2-yl)phenyl)imidazo[1,2-b]pyridazin-6-amine] |
| ≤ 1 | CCCCNc1ccc2ncc(-c3ccc4c(c3)CNC4)n2n1 [N-butyl-3-(isoindolin-5-yl)imidazo[1,2-b]pyridazin-6-amine] |
| ≤ 0.1 | COc1cnccc1-c1cnc2ccc(NCCC(C)C)nn12 [N-isopentyl-3-(3-methoxypyridin-4-yl)imidazo[1,2-b]pyridazin-6-amine] |
| ≤ 0.01 | CNC(=O)c1ccc(-c2cnc3ccc(NCCc4ccccc4OC(F)(F)F)nn23)cc1 [N-methyl-4-(6-((2-(trifluoromethoxy)phenethyl)amino)imidazo[1,2-b]pyridazin-3-yl)benzamide] |
| ≤ 1 | CCCCCNc1ccc2ncc(-c3ccc(C4CCCN4)cc3)n2n1 (stereo not drawn) [Pentyl-[3-(4-pyrrolidin-2-yl-phenyl)-imidazo[1,2-b]pyridazin-6-yl]-amine] |
| ≤ 0.1 | CCCCNc1nn2c(-c3ccc(CN)cc3)cnc2cc1C [[3-(4-Aminomethyl-phenyl)-7-methyl-imidazo[1,2-b]pyridazin-6-yl]-butyl-amine] |
| ≤ 0.1 | NCc1ccc(-c2cnc3ccc(NCCCc4ccccc4)nn23)cc1 [[3-(4-Aminomethyl-phenyl)-imidazo[1,2-b]pyridazin-6-yl]-(3-phenyl-propyl)-amine] |

| Structure (SMILES) | IC50 [µM] |
| --- | --- |
| COc1cnccc1-c1cnc2ccc(NCCOC(C)(C)C)nn12 [N-(2-(tert-butoxy)ethyl)-3-(3-methoxypyridin-4-yl)imidazo[1,2-b]pyridazin-6-amine] | ≤ 0.1 |
| CC(C)(C)OCCNc1ccc2ncc(-c3ccc(C4CCCN4)cc3)n2n1 (stereo not drawn) [N-(2-(tert-butoxy)ethyl)-3-(4-(pyrrolidin-2-yl)phenyl)imidazo[1,2-b]pyridazin-6-amine] | ≤ 0.1 |
| CC(C)(C)OCCCNc1ccc2ncc(-c3ccc(C(=O)NCCN)cc3)n2n1 [N-(2-aminoethyl)-4-(6-((3-(tert-butoxy)propyl)amino)imidazo[1,2-b]pyridazin-3-yl)benzamide] | ≤ 1 |
| COc1ccccc1-c1cnc2ccc(NCCOCC(C)C)nn12 [N-(2-isobutoxyethyl)-3-(2-methoxyphenyl)imidazo[1,2-b]pyridazin-6-amine] | ≤ 1 |
| COc1cnccc1-c1cnc2ccc(NCCOCC(C)C)nn12 [N-(2-isobutoxyethyl)-3-(3-methoxypyridin-4-yl)imidazo[1,2-b]pyridazin-6-amine] | ≤ 0.1 |
| CC(C)COCCNc1ccc2ncc(-c3ccncc3)n2n1 [N-(2-isobutoxyethyl)-3-(pyridin-4-yl)imidazo[1,2-b]pyridazin-6-amine] | ≤ 1 |
| COc1cnccc1-c1cnc2ccc(NCCCOC(C)(C)C)nn12 [N-(3-(tert-butoxy)propyl)-3-(3-methoxypyridin-4-yl)imidazo[1,2-b]pyridazin-6-amine] | ≤ 1 |
